Data published in US20160038532A1, “Treatment of Multiple Sclerosis With Combination of Laquinimod and Glatiramer Acetate” (TEVA PHARMACEUTICAL INDUSTRIES, LTD., priority 2011, published 2016).

Legend:
[1] = system: relapsing remitting (RR) EAE; assay: Relapsing remitting EAE in Biozzi mice, combination study (Example 2.6); format: in vivo
Experimental: EAE is an animal model for multiple sclerosis. In the Biozzi AB/H EAE mice, a RR EAE can be induced. […] Re-injection of an encephalitogen can induce a chronic relapsing disease that enables measuring long-term effects on subsequent relapses rather than immediate effects.
The EAE induction was performed according to procedure “RR-EAE.Biozzi” The Biozzi mice were weighed and injected subcutaneously and re-injected one week later with encephalitogenic agent (MSCH emulsion). 0.3 mL of the encephalitogenic agent containing 1.0 mg of MSCH and 200.0 μg of MT was injected subcutaneously, at two sites in the right flank of each mouse (0.15 mL at each site). The second injection was done in a similar manner in the left flank, one week later.
On the day of first injection of encephalotigen, the Biozzi mice were randomly allocated to eight treatment groups as follows: Tables 16-17.
The 5.0 mg/mL laquinimod stock solution was diluted 1:5 to yield 1 mg/mL.
The mice in all the groups were administered daily by oral gavage a volume dose level of […] of the respective test formulations from the day the mice are allocated to the treatment groups (first injection of encephalitogen) for 59 consecutive days until the termination of the study.
The mice were examined and scored according to the following table, until the termination of the study (60 days after initiation of treatment).
The activity of the test articles for the first and second phase of RR EAE was calculated by comparing the incidence of disease, mortality, onset and duration of disease, group mean score and mean maximal score to the control group. Calculations were carried separately and together for the first and the second relapse.

[2] = system: MSCH-induced EAE; assay: MSCH-induced EAE in CSJL/F1 mice (Example 2.8); format: in vivo
Experimental: Disease was induced in all mice by the injection of the encephalitogenic emulsion (MSCH/CFA). The test articles and the vehicle were administered orally twice a day.
For groups 1 and 3 to 6, 360.0 mg MSCH was suspended in 3.0 ml PBS to yield 120 mg/ml MSCH suspension.
0.05 ml was injected into the left foot-pad of each mouse. The concentration of MSCH in emulsion in all groups was 60 mg/mL. The dose of the MSCH in all the groups was 3.0 mg/0.05 ml/mouse. The concentration of MT in emulsion in all groups was 0.25 mg/mL. The dose of the MT in all the groups was 0.0125 mg/0.05 ml/mouse.
36 μL Pertussis toxin (200 μg/ml) was added to 44.964 ml PBS to yield 160 ng/ml. The pertussis toxin was administered intravenous on the day of encephalitogen injection and 48 hours later (80.0 ng/0.5 ml/mouse).
Solutions at concentration of 0.001, 0.01, 0.03 and 0.1 mg/mL laquinimod were prepared in water for dose levels of 0.01, 0.1, 0.3 and 1.0 mg/kg respectively. The test formulations were stored at 2 to 8° C. until use in amber colored bottles.
The mice were administered with the respective dose levels of laquinimod at volume dose level of 200 μL/mouse. The test formulations were vortexed before dispensing in syringe.
The different dose levels laquinimod were administered to the respective groups once a day.
Scoring of EAE clinical signs was initiated from the 10th day post-EAE induction and was continued daily until Day 23. The clinical signs were recorded on observation cards according to a grading system described in the table 23 above. Animals with score 4 for more than three days were given score 5 and sacrificed for humane reasons. For calculation purposes, the score (5) of animals that are sacrificed or died were carried forward.
The calculations are as shown in Example 2.4.

[3] = first and second attacks together, GA 12.5 mg/kg oral daily 59 d
[4] = first attack, GA 12.5 mg/kg oral daily
[5] = second attack, GA 12.5 mg/kg oral daily
[6] = GA 0.5 mg/kg (sub optimal) with encephalitogen
[7] = GA blocking 0.5 mg/kg (sub-optimal dose), with encephalitogen

In the case of “L-glutamic acid polymer with L-alanine, L-lysine and L-tyrosine, acetate (salt) [GA]”, the GMS % inhibition [1, 3] is reported as 21.7%, the GMS value [1, 3] is reported as 1.8 and the Incidence [1, 3] is reported as 12/14. It also gave an Incidence % inhibition [1, 3] of 7.7%, an MMS % inhibition [1, 3] of 0.0% and an MMS value [1, 3] of 3.6. The “Mean Duration” value [1, 3] was 23.8 ± 16.2 days, the “% Inhibition 1 (incidence)” value [1, 4] was 7.7% and the “IMS % Inhibition 3” value [1, 4] was 15.6%. The IMS value [1, 4] was 58.6 ± 70.5, the Incidence [1, 4] was 12/14 and the “MMS % Inhibition 2” value [1, 4] was 2.8%. For the same substance, the MMS value [1, 4] was 3.5 ± 1.6, the “Mean Duration” value [1, 4] was 15.7 ± 14.0 days and the “% Inhibition 1 (incidence)” value [1, 5] was 31.2%. The “IMS % Inhibition 3” value [1, 5] was 35.5%, the IMS value [1, 5] was 30.5 ± 33.0 and the Incidence [1, 5] was 6/12. For the same substance, the “MMS % Inhibition 2” value [1, 5] was 31.0%, the MMS value [1, 5] was 2.0 ± 1.7 and the “Mean Duration” value [1, 5] was 9.4 ± 10.5 days. For the same substance, the Incidence [2, 6] was 4/11, the MMS [2, 6] was 1.1±15 and the “activity according to GMS” value [2, 6] was 79.4%. The “% Inhibition 1 (according to Incidence)” value [2, 7] was 60.0%, the “% Inhibition 2 (according to MMS)” value [2, 7] was 75.5% and the “% Inhibition 3 (according to GMS)” value [2, 7] was 79.4%( ). For the same substance, the “GMS value (Group Mean Score)” value [2, 7] was 0.7 ± 1.0, the Incidence [2, 7] was 4/11 and the “MMS value (Mean Maximal Score)” value [2, 7] was 1.1 ± 1.5. For the same substance, the “Mean Duration” value [2, 7] was 3.6 days and the “Onset” value [2, 7] was 20.4 days.
